Results on five compounds are retold here after patent US20050186568A1, “Kinases and phosphatases” (priority 2001, published 2005).

The target in one experiment is CKI-epsilon (Homo sapiens, UniProt P49674). The following applies: recombinant expression; cited from earlier work.
The subject of another experiment is SEQ ID NO:57. The experiment can be described thus: Microarray analysis of SEQ ID NO:57 expression in steroid-treated C3A cells. It is filed as cell-based, human. The following applies: early confluent C3A cells, 1, 3 and 6 hours (all time points), compared to untreated C3A cells. How it is done: Total RNA is isolated from tissue samples using the guanidinium thiocyanate method and poly(A)^+ RNA is purified using the oligo-(dT) cellulose method. Each poly(A)^+ RNA sample is reverse transcribed using MMLV reverse-transcriptase, 0.05 pg/μl oligo-(dT) primer (21 mer), 1× first strand buffer, 0.03 units/μl RNase inhibitor, 500 μM dATP, 500 μM dGTP, 500 μM dTTP, 40 μM dCTWP, 40 μM dCTP-Cy3 (BDS) or dCTP-Cy5 (Amersham Biosciences). The reverse transcription reaction is performed in a […] containing 200 ng poly(A)^+ RNA with GEMBRIGHT kits (Incyte Genomics). Specific control poly(A)^+ RNAs are synthesized by in vitro transcription from non-coding yeast genomic DNA. After incubation at 37° C. for 2 hr, each reaction sample (one with Cy3 and another with Cy5 labeling) is treated with […] of 0.5M sodium hydroxide and incubated for 20 minutes at 85° C. to the stop the reaction and degrade the RNA. Samples are purified using two successive CHROMA SPIN 30 gel filtration spin columns (Clontech, Palo Alto Calif.) and after combining, both reaction samples are ethanol precipitated using […] of 100% ethanol. […]
Sequences of the present invention are used to generate array elements. […] Array elements are amplified in thirty cycles of PCR from an initial quantity of 1-2 ng to a final quantity greater than 5 μg. […]

Another experiment concerns SEQ ID NO:67. The experiment can be described thus: Microarray analysis of SEQ ID NO:67 expression in steroid-treated C3A cells. It counts as cell-based, human. The following applies: early confluent C3A cells treated for 1, 3, or 6 hours. How it is done:
Total RNA is isolated from tissue samples using the guanidinium thiocyanate method and poly(A)^+ RNA is purified using the oligo-(dT) cellulose method. Each poly(A)^+ RNA sample is reverse transcribed using MMLV reverse-transcriptase, 0.05 pg/μl oligo-(dT) primer (21 mer), 1× first strand buffer, 0.03 units/μl RNase inhibitor, 500 μM dATP, 500 μM dGTP, 500 μM dTTP, 40 μM dCTWP, 40 μM dCTP-Cy3 (BDS) or dCTP-Cy5 (Amersham Biosciences). The reverse transcription reaction is performed in a […] containing 200 ng poly(A)^+ RNA with GEMBRIGHT kits (Incyte Genomics). Specific control poly(A)^+ RNAs are synthesized by in vitro transcription from non-coding yeast genomic DNA. After incubation at 37° C. for 2 hr, each reaction sample (one with Cy3 and another with Cy5 labeling) is treated with […] of 0.5M sodium hydroxide and incubated for 20 minutes at 85° C. to the stop the reaction and degrade the RNA. Samples are purified using two successive CHROMA SPIN 30 gel filtration spin columns (Clontech, Palo Alto Calif.) and after combining, both reaction samples are ethanol precipitated using […] of 100% ethanol. The sample is then dried to completion using a SpeedVAC (Savant Instruments Inc., Holbrook N.Y.) and resuspended in 14 μl 5×SSC/0.2% SDS.
Sequences of the present invention are used to generate array elements. Each array element is amplified from bacterial cells containing vectors with cloned cDNA inserts. PCR amplification uses primers complementary to the vector sequences flanking the cDNA insert. Array elements are amplified in thirty cycles of PCR from an initial quantity of 1-2 ng to a final quantity greater than 5 μg. Amplified array elements are then purified using SEPHACRYL-400 (Amersham Biosciences).
Purified array elements are immobilized on polymer-coated glass slides. Glass microscope slides (Corning) are cleaned by ultrasound in 0.1% SDS and acetone, with extensive distilled water washes between and after treatments. Glass slides are etched in 4% hydrofluoric acid (VWR Scientific Products Corporation (VWR), West Chester Pa.), washed extensively in distilled water, and coated with 0.05% aminopropyl silane (Sigma) in 95% ethanol. Coated slides are cured in a 110° C. oven.
Array elements are applied to the coated glass substrate using a procedure described in U.S. Pat. No. 5,807,522, incorporated herein by reference. 1 μl of the array element DNA, at an average concentration of 100 ng/μl, is loaded into the open capillary printing element by a high-speed robotic apparatus. The apparatus then deposits about 5 nl of array element sample per slide.
Microarrays are UV-crosslinked using a STRATALINKER UV-crosslinker (Stratagene). […]

For experiment [1] the following is noted: relative to progesterone; cited from earlier work.

Sequence of CKI-epsilon (P49674 whole entry): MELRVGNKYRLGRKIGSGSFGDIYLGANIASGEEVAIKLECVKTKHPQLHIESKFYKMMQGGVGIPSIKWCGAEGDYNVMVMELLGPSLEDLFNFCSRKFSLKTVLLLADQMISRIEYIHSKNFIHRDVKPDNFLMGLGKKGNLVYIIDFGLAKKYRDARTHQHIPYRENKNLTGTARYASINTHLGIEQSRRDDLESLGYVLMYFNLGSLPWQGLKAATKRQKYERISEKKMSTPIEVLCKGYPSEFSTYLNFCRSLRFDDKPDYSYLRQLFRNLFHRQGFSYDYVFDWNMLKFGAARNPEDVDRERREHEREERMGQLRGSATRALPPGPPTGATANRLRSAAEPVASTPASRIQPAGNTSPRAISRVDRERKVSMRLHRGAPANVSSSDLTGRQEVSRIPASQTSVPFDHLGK

Regarding `NCCNS(=O)(=O)c1ccc(Cl)c2ccncc12` [CKI-7], the “inhibition of CKI-epsilon” value on CKI-epsilon is on record as “inhibited”.

Take `C[C@H]1C[C@H]2[C@@H]3CCC4=CC(=O)C=C[C@]4(C)[C@@]3(Cl)[C@@H](O)C[C@]2(C)[C@@]1(O)C(=O)CO` [beclomethasone]: the “expression of SEQ ID NO:57” value with SEQ ID NO:57 (beclamethasone at 10 μM) is reported as “increased by at least two-fold”. Also, the “expression of SEQ ID NO:67” value in the experiment on SEQ ID NO:67 is given as “at least a two-fold decrease”.

As for `CC(=O)[C@H]1CC[C@H]2[C@@H]3CCC4=CC(=O)CC[C@]4(C)[C@H]3CC[C@]12C` [progesterone], in the experiment with SEQ ID NO:57 (progesterone at 100 μM), the “expression of SEQ ID NO:57” value was “increased by at least two-fold”. Besides, the “expression of SEQ ID NO:67” value in the experiment on SEQ ID NO:67 is recorded as “at least a two-fold decrease”.

As for “6α-methyl-17-hydroxyprogesterone [medroxyprogesterone]”, the “expression of SEQ ID NO:67” value with SEQ ID NO:67 is recorded as “at least a two-fold decrease”. In experiment [1], the “pharmacological activity greater than progesterone” value was “about 15 times”.

Take `C[C@]12C=CC(=O)C=C1CC[C@@H]1[C@@H]2C(=O)C[C@@]2(C)[C@H]1CC[C@]2(O)C(=O)CO` [prednisone]: in the experiment with SEQ ID NO:67, the “expression of SEQ ID NO:67” value was “at least a two-fold decrease”.
